# According to the supplement of paper PMC13380429:
# Experiments:
# Conditions in all cases: 72 h
# Vero E6 [1] = assay: cell viability relative to DMSO; higher = less toxic
# U2OS [2] = assay: as above
# Calu-3 [3] = assay: as above
# HepG2 [4] = assay: as above
# Caco-2 [5] = assay: as above
# Vero E6 [6] = assay: relative viability EC50 (midpoint between 100% and the lowest measured viability); higher = less toxic
# U2OS [7] = assay: as above
# Calu-3 [8] = assay: as above
# HepG2 [9] = assay: as above
# Caco-2 [10] = assay: as above
# Vero E6 [11] = assay: drug sensitivity score (DSS) for viability; higher = more toxic; extreme values may be limits of the assay
# U2OS [12] = assay: as above
# Calu-3 [13] = assay: as above
# HepG2 [14] = assay: as above
# Caco-2 [15] = assay: as above
Compound,cell viability (Vero E6 [1]; 1 nM),cell viability (Vero E6 [1]; 10 nM),cell viability (Vero E6 [1]; 100 nM),cell viability (Vero E6 [1]; 1000 nM),cell viability (Vero E6 [1]; 10000 nM),cell viability (U2OS [2]; 1 nM),cell viability (U2OS [2]; 10 nM),cell viability (U2OS [2]; 100 nM),cell viability (U2OS [2]; 1000 nM),cell viability (U2OS [2]; 10000 nM),cell viability (Calu-3 [3]; 1 nM),cell viability (Calu-3 [3]; 10 nM),cell viability (Calu-3 [3]; 100 nM),cell viability (Calu-3 [3]; 1000 nM),cell viability (Calu-3 [3]; 10000 nM),cell viability (HepG2 [4]; 1 nM),cell viability (HepG2 [4]; 10 nM),cell viability (HepG2 [4]; 100 nM),cell viability (HepG2 [4]; 1000 nM),cell viability (HepG2 [4]; 10000 nM),cell viability (Caco-2 [5]; 1 nM),cell viability (Caco-2 [5]; 10 nM),cell viability (Caco-2 [5]; 100 nM),cell viability (Caco-2 [5]; 1000 nM),cell viability (Caco-2 [5]; 10000 nM),relative viability EC50 (Vero E6 [6]),relative viability EC50 (U2OS [7]),relative viability EC50 (Calu-3 [8]),relative viability EC50 (HepG2 [9]),relative viability EC50 (Caco-2 [10]),drug sensitivity score (Vero E6 [11]),drug sensitivity score (U2OS [12]),drug sensitivity score (Calu-3 [13]),drug sensitivity score (HepG2 [14]),drug sensitivity score (Caco-2 [15])
Clc1cccc(SC2CCNCC2)n1 [anpirtoline],102%,104%,99.1%,98.4%,96.5%,99.3%,96.5%,100%,96.1%,100%,94.9%,98.6%,93.5%,98.3%,114%,109%,102%,107%,104%,97.9%,93.1%,93.5%,101%,100%,96.8%,> 10 µM,> 10 µM,> 10 µM,> 10 µM,> 10 µM,0,0,0,0,0
COc1cc2cc(c1Cl)N(C)C(=O)C[C@H](OC(=O)C(C)C)[C@]1(C)O[C@@H]1[C@H](C)[C@@H]1C[C@@](O)(NC(=O)O1)[C@H](OC)/C=C/C=C(\C)C2 [ansamitocin-p-3],72.1%,32.5%,29.8%,21.2%,18.4%,39.6%,29.1%,19.9%,17.9%,16.3%,62.6%,53.6%,36.7%,37.4%,37.8%,39%,32.4%,38%,33.8%,30.9%,45%,47.9%,39%,40.9%,35.1%,0.0021 µM,< 0.001 µM,< 0.001 µM,< 0.001 µM,< 0.001 µM,35,37.6,27.7,33.8,28.4
CCOc1ccc(C[C@H]2NC(=O)CCSSC[C@@H](C(=O)N3CCC[C@H]3C(=O)N[C@@H](CCCN)C(=O)NCC(N)=O)NC(=O)[C@H](CC(N)=O)NC(=O)[C@H]([C@@H](C)O)NC(=O)[C@H]([C@@H](C)CC)NC2=O)cc1 [atosiban],102%,96.2%,110%,102%,100%,100%,99.1%,94.9%,100%,98.7%,103%,105%,103%,118%,98.9%,107%,99.5%,92.8%,90.4%,97.4%,93.1%,108%,102%,102%,91.8%,> 10 µM,> 10 µM,> 10 µM,> 10 µM,> 10 µM,0,0,0,0,0
OC(c1ccccc1)(c1ccccc1)C1CCNCC1 [azacyclonol],105%,100%,102%,99.9%,99.9%,102%,99.2%,98.5%,102%,97.1%,88.6%,99.5%,90%,97%,101%,116%,91.6%,101%,97.8%,93%,93.6%,102%,97%,102%,93.6%,> 10 µM,> 10 µM,> 10 µM,> 10 µM,> 10 µM,0,0,0,0,0
C=C[C@]1(C)CC[C@@H](C(=C)C)C[C@H]1C(=C)C [beta-elemene],97.4%,97.2%,95.7%,97.8%,96.6%,102%,98%,97%,96.4%,101%,106%,98.4%,103%,97.2%,102%,95.8%,101%,93.2%,106%,103%,95.3%,98.6%,97.5%,92.6%,102%,> 10 µM,> 10 µM,> 10 µM,> 10 µM,> 10 µM,0,0,0,0,0
CCOc1nc2cccc(C(=O)OC(C)OC(=O)OC3CCCCC3)c2n1Cc1ccc(-c2ccccc2-c2nn[nH]n2)cc1 (stereo not given) [candesartan-cilexetil],107%,106%,109%,104%,99.1%,93.7%,106%,93.6%,90.9%,92.7%,93.1%,105%,99.5%,105%,105%,98.3%,103%,104%,102%,100%,95.6%,100%,91.4%,101%,86.5%,> 10 µM,> 10 µM,> 10 µM,> 10 µM,> 10 µM,0,0,0,0,0.1
C[C@@](Cc1ccc(O)c(O)c1)(NN)C(=O)O [carbidopa],92.6%,87.6%,91.4%,90.4%,106%,92.9%,99.9%,92.8%,100%,102%,100%,103%,89.5%,114%,99.9%,107%,113%,101%,98.5%,95.8%,98.1%,94.4%,95.1%,110%,108%,> 10 µM,> 10 µM,> 10 µM,> 10 µM,> 10 µM,0,0,0,0,0
CCCCCCCCCCCCCCCCOc1nc2ccc(C)cc2c(=O)o1 [cetilistat],99.8%,81.8%,98%,99.4%,105%,93.7%,98.2%,93.5%,99.7%,103%,103%,107%,94.8%,100%,107%,106%,94%,113%,99.9%,97.9%,94.8%,96.6%,89.8%,107%,96.7%,> 10 µM,> 10 µM,> 10 µM,> 10 µM,> 10 µM,0,0,0,0,0
O=C(O)CCC(=O)OC[C@@H](NC(=O)C(Cl)Cl)[C@H](O)c1ccc([N+](=O)[O-])cc1 [chloramphenicol-sodium-succinate],104%,104%,96.5%,102%,97.2%,100%,96.9%,98.1%,99.3%,102%,108%,97.1%,97.3%,91%,106%,105%,114%,88.3%,103%,96.3%,103%,95.1%,98.2%,100%,103%,> 10 µM,> 10 µM,> 10 µM,> 10 µM,> 10 µM,0,0,0,0,0
NCC(=O)N1C[C@H](NC(=O)c2ccccc2)C[C@H]1C(=O)O [danegaptide],101%,101%,93.8%,99.9%,106%,93.6%,93.6%,98.5%,101%,99.3%,98.6%,93.3%,101%,96.4%,91.1%,106%,102%,99.7%,101%,104%,98.3%,97.1%,90.7%,86.3%,107%,> 10 µM,> 10 µM,> 10 µM,> 10 µM,> 10 µM,0,0,0,0,0
CCCCCCCCCCOc1cc2c(O)c(C(=O)OCC)cnc2cc1OCC [decoquinate],102%,103%,105%,96.7%,103%,100%,99.8%,99%,99.6%,100%,99.8%,107%,106%,98.2%,105%,95.9%,103%,98.9%,107%,96.2%,101%,92.6%,93.3%,89.4%,96.6%,> 10 µM,> 10 µM,> 10 µM,> 10 µM,> 10 µM,0,0,0,0,0
N#CC(Cc1ccc(O)cc1)c1ccc(O)cc1 (stereo not given) [diarylpropionitrile],99.4%,104%,99.1%,102%,94.8%,99.6%,99.4%,98.7%,102%,102%,108%,91.2%,100%,94.3%,103%,98.7%,90.3%,99.6%,89.2%,102%,99%,103%,88.4%,100%,95.3%,> 10 µM,> 10 µM,> 10 µM,> 10 µM,> 10 µM,0,0,0,0,0
COc1ccc(Cc2cnc(N)nc2N)cc1OC [diaveridine],99.5%,104%,97%,98.2%,94.3%,105%,103%,107%,96.7%,102%,86.6%,94.4%,97.7%,84.3%,88.9%,95.6%,102%,89.2%,95.8%,98%,96.9%,90.4%,100%,93%,96.6%,> 10 µM,> 10 µM,> 10 µM,> 10 µM,> 10 µM,0,0,0,0,0
CCN(CC)C(=O)N1CCN(C)CC1 [diethylcarbamazine],103%,97.5%,102%,103%,99.3%,103%,97.8%,102%,91.4%,98.1%,102%,91.4%,103%,103%,102%,88.1%,100%,105%,101%,107%,98.2%,95.4%,97.2%,88.5%,99.9%,> 10 µM,> 10 µM,> 10 µM,> 10 µM,> 10 µM,0,0,0,0,0
